Measurements from publication PMC6151589, “Identification of Optically Active Pyrimidine Derivatives as Selective 5-HT2C Modulators” (Molecules : A Journal of Synthetic Chemistry and Natural …, 2017).
Like-named read-outs stand apart in the source and are kept apart here.

Assays:
Type in all cases: binding
[1] = target: T1, 5-HT2B (Homo sapiens, UniProt P41595); experiment: radioligand displacement, membranes
T1 construct: gene HTR2B; human recombinant receptor; crude membrane fractions of transfected HEK293 or CHO cells
Text: radioligand displacement, membranes on 5-HT2B

[2] = target: T2, 5-HT2C (Homo sapiens, UniProt P28335); experiment: [3H]mesulergine displacement, membranes
T2 construct: gene HTR2C; human recombinant receptor; crude membrane fractions of transfected cells (CHO-K1; HEK293 or CHO)
T2 sequence (P28335 33-458): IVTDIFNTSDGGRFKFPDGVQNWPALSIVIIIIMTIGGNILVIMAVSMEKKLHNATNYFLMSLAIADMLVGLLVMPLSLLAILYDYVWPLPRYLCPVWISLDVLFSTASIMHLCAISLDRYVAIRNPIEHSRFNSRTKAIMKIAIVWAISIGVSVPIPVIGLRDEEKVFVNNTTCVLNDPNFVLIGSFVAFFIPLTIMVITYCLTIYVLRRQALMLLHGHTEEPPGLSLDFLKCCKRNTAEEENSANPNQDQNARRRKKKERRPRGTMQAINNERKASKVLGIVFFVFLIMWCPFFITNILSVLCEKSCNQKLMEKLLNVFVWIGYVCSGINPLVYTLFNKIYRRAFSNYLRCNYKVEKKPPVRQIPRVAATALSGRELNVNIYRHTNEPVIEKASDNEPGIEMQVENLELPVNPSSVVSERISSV
Text: [3H]mesulergine displacement, membranes on 5-HT2C

[3] = target: T3, 5-HT2A (Homo sapiens, UniProt P28223); experiment: radioligand displacement, membranes
T3 construct: gene HTR2A; human recombinant receptor; crude membrane fractions of transfected HEK293 or CHO cells
Text: radioligand displacement, membranes on 5-HT2A

[4] = target: T2, 5-HT2C; experiment: [3H]mesulergine displacement, membranes; settings: read-out: 5-HT2B / Ki

T1 sequence (P41595 whole entry): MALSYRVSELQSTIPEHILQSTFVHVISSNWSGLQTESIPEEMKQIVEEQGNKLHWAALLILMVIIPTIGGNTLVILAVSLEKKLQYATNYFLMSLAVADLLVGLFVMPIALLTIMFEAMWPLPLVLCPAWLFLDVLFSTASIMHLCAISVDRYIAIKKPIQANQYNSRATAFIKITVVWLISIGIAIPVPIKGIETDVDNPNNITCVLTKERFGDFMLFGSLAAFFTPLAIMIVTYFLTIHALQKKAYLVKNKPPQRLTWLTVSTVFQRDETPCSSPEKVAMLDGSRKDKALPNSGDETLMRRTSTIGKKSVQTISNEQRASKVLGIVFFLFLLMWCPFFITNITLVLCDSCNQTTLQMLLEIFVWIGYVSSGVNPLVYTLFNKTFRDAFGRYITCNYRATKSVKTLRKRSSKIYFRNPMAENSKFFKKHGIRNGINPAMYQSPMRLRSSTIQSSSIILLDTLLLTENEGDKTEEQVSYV
T3 sequence (P28223 whole entry): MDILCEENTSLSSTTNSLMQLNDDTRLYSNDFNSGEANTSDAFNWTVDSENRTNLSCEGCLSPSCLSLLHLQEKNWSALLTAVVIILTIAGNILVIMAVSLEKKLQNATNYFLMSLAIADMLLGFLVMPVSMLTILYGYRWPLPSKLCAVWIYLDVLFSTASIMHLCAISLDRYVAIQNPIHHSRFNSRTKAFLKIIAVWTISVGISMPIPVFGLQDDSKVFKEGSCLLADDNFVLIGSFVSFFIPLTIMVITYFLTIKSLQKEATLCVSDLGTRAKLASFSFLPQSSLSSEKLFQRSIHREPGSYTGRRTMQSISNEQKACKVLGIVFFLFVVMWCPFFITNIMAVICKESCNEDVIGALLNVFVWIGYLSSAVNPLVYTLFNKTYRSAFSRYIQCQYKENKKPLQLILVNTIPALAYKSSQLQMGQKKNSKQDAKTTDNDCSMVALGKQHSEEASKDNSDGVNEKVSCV

| SMILES | Ki [1] | Ki [2] | Ki [3] | Ki [4] |
| --- | --- | --- | --- | --- |
| CC(Oc1nc(N2CCNC[C@H]2C)ncc1F)c1cccc(F)c1 (mixture of isomers) [4d, 5-Fluoro-4-(1-(3-fluorophenyl)ethoxy)-2-((R)-2-methylpiperazin-1-yl)pyrimidine] | 4.8 nM | 2.7 nM | 213 nM | – |
| CC(Oc1nc(N2CCNC[C@H]2C)ncc1F)c1ccc(F)cc1 (mixture of isomers) [4e, 5-Fluoro-4-(1-(4-fluorophenyl)ethoxy)-2-((R)-2-methylpiperazin-1-yl)pyrimidine] | 10 nM | 4.5 nM | 426 nM | – |
| CC(CCc1cccc(F)c1)Oc1nc(N2CCNC[C@H]2C)ncc1F (mixture of isomers) [4h, 5-Fluoro-4-((4-(3-fluorophenyl)butan-2-yl)oxy)-2-((R)-2-methylpiperazin-1-l)pyrimidine] | 16 nM | 14 nM | 170 nM | – |
| CC(CCc1ccc(F)cc1)Oc1nc(N2CCNC[C@H]2C)ncc1F (mixture of isomers) [4i, 5-Fluoro-4-((4-(4-fluorophenyl)butan-2-yl)oxy)-2-((R)-2-methylpiperazin-1-yl)pyrimidine] | 22 nM | 12 nM | 173 nM | – |
| C[C@@H]1CNCCN1c1ncc(F)c(OCc2ccccc2F)n1 [4a, (R)-5-Fluoro-4-((2-fluorobenzyl)oxy)-2-(2-methylpiperazin-1-yl)pyrimidine] | 56 nM | 31 nM | 80 nM | – |
| C[C@@H]1CNCCN1c1ncc(F)c(OCc2cccc(F)c2)n1 [4b, (R)-5-Fluoro-4-((3-fluorobenzyl)oxy)-2-(2-methylpiperazin-1-yl)pyrimidine] | 14 nM | 5.1 nM | 43 nM | – |
| C[C@@H]1CNCCN1c1ncc(F)c(OCc2ccc(F)cc2)n1 [4c, (R)-5-Fluoro-4-((4-fluorobenzyl)oxy)-2-(2-methylpiperazin-1-yl)pyrimidine] | 14 nM | 22 nM | 51 nM | – |
| C[C@@H]1CNCCN1c1ncc(F)c(OCCCc2cccc(F)c2)n1 [4f, (R)-5-Fluoro-4-(3-(3-fluorophenyl)propoxy)-2-(2-methylpiperazin-1-yl)pyrimidine] | 24 nM | 20 nM | 138 nM | – |
| C[C@@H]1CNCCN1c1ncc(F)c(OCCCc2ccc(F)cc2)n1 [4g, (R)-5-Fluoro-4-(3-(4-fluorophenyl)propoxy)-2-(2-methylpiperazin-1-yl)pyrimidine] | 22 nM | – | 90 nM | 22 nM |
